Results published in patent US7745646B2, “Bicyclic heteroaryl inhibitors of PDE4” (Kalypsys, Inc., priority 2006, dated 2010).

Each compound was assayed against T1, PDE4B (Homo sapiens, UniProt Q07343) (assay: Novel coupled PDE/AK bioluminescent assay, PDE4B inhibition). Details: PDE4B catalytic domain.
T1 construct: hex-histidine (His6) (N); made in house
Type: biochemical
From the text: We developed a novel coupled PDE/AK bioluminescent high-throughput assay to measure the activity of phosphodiesterases. In the PDE/AK assay, the AMP produced from the hydrolysis of cAMP by phosphodiesterase is converted to adenosine diphosphate (ADP) by the phosphotransferase activity of adenylate kinase (also known as ADK or myokinase). Adenylate kinase will catalyze the conversion of 1 mole of AMP and 1 mole of ATP into 2 moles of ADP. Thus the conversion of AMP to ADP will result in the subsequent loss of ATP. The decrease in ATP concentration can be monitored as light output using luciferase in a reaction that requires ATP to produce light. The PDE/AK assay uses luciferase, which catalyzes the production of light from ATP present in the reaction mix. The amount of emitted light is inversely proportional to the level of AMP present in the reaction. Test compounds are incubated with the phosphodiesterases and phosphodiesterase inhibitors will decrease the rate of cAMP hydrolysis and decrease the subsequent production of AMP.
A novel coupled PDE/AK assay was utilized to measure the inhibitory activity of compounds on PDE isoforms. The catalytic domain of PDE4B was fused to an amino-terminus hex-histidine affinity tag and purified. PDE4B enzyme was incubated with compounds for 10 minutes. Cyclic AMP substrate, ATP and adenylate kinase were then added to the PDE enzyme mix and incubated for 45 minutes at room temperature. A commercial ATP detection assay, Perkin Elmer's easyLite ATP detection reagent, was then added to measure the relative amount of ATP present in the reaction. After 10 minute incubation, the luminescent signal was quantitated with either the Perkin Elmer Viewlux or Molecular Devices Acquest or Analyst.

T1 sequence (Q07343 330-659 limits assumed, species assumed): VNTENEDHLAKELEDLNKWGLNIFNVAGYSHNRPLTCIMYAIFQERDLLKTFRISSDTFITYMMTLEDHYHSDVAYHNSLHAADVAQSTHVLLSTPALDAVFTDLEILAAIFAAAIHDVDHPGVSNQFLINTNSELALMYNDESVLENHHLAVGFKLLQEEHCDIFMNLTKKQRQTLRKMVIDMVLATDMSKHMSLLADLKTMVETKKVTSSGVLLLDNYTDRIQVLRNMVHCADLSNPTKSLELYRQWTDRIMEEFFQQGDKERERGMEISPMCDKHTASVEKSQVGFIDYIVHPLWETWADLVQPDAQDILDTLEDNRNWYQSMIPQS

Compound | IC50 [µM]
COc1ccc2c(Nc3c(Cl)cncc3Cl)cc(=O)oc2c1OCCC1CCCCC1 [Example 47, 8-(2-Cyclohexylethoxy)-4-(3,5-dichloropyridin-4-ylamino)-7-methoxy-2H-chromen-2-one] | < 1
COc1ccc2c(Nc3c(Cl)cncc3Cl)cc(=O)oc2c1OCCCCCN(C)C [Example 31, 4-(3,5-Dichloropyridin-4-ylamino)-8-(5-(dimethylamino)pentyloxy)-7-methoxy-2H-chromen-2-one] | < 1
COc1ccc2c(Nc3c(Cl)cncc3Cl)cc(=O)oc2c1OCCCO [Example 85, 4-(3,5-Dichloropyridin-4-ylamino)-8-(3-hydroxypropoxy)-7-methoxy-2H-chromen-2-one] | < 1
COc1ccc2c(Nc3c(Cl)cncc3Cl)cc(=O)oc2c1OC/C=C\CO [Example 76, (Z)-4-(3,5-Dichloropyridin-4-ylamino)-8-(4-hydroxybut-2-enyloxy)-7-methoxy-2H-chromen-2-one] | < 1
COc1ccc2c(Nc3c(Cl)cncc3Cl)cc(=O)oc2c1OCCCC(=O)O [Example 42, 4-(4-(3,5-Dichloropyridin-4-ylamino)-7-methoxy-2-oxo-2H-chromen-8-yloxy)butanoic acid] | < 1
COc1ccc2c(Nc3c(Cl)cncc3Cl)cc(=O)oc2c1OCCCCCCCN(C)C [Example 80, 4-(3,5-Dichloropyridin-4-ylamino)-8-(7-(dimethylamino)heptyloxy)-7-methoxy-2H-chromen-2-one] | < 1
COc1ccc2c(Nc3c(Cl)cncc3Cl)cc(=O)oc2c1OCC(C)C [Example 23, 4-(3,5-Dichloropyridin-4-ylamino)-8-isobutoxy-7-methoxy-2H-chromen-2-one] | < 1
COc1ccc2c(Nc3c(Cl)cncc3Cl)cc(=O)oc2c1OCc1cccc([N+](=O)[O-])c1 [Example 34, 4-(3,5-Dichloropyridin-4-ylamino)-7-methoxy-8-(3-nitrobenzyloxy)-2H-chromen-2-one] | < 1
COc1ccc2c(Nc3c(Cl)cncc3Cl)c(F)c(=O)oc2c1OC1CCCC1 [Example 14, 8-(Cyclopentyloxy)-4-(3,5-dichloropyridin-4-ylamino)-3-fluoro-7-methoxy-2H-chromen-2-one] | < 1
COc1ccc2c(Nc3c(Cl)cncc3Cl)cc(=O)oc2c1OC[C@@H]1OC(=O)[C@@H](O)[C@H]1O [Example 51, 4-(3,5-Dichloropyridin-4-ylamino)-8-(((2S,3R,4S)-3,4-dihydroxy-5-oxotetrahydrofuran-2-yl)methoxy)-7-methoxy-2H-chromen-2-one] | < 1
COc1ccc2c(Nc3c(Cl)cncc3Cl)cc(=O)oc2c1OCCCCCO [Example 72, 4-(3,5-Dichloropyridin-4-ylamino)-8-(5-hydroxypentyloxy)-7-methoxy-2H-chromen-2-one] | < 1
COc1ccc2c(Nc3c(Cl)cncc3Cl)cc(=O)oc2c1OCCCCCN(C)CCCN(C)C [Example 92, 4-(3,5-Dichloropyridin-4-ylamino)-8-(5-((3-(dimethylamino)propyl)(methyl)amino)pentyloxy)-7-methoxy-2H-chromen-2-one] | < 1
CCCN(C)CCCCCOc1c(OC)ccc2c(Nc3c(Cl)cncc3Cl)cc(=O)oc12 [Example 89, 4-(3,5-Dichloropyridin-4-ylamino)-7-methoxy-8-(5-(methyl(propyl)amino)pentyloxy)-2H-chromen-2-one] | < 1
COc1ccc2c(Nc3c(Cl)cncc3Cl)cc(=O)oc2c1OCCCCCCN(C)C [Example 79, 4-(3,5-Dichloropyridin-4-ylamino)-8-(6-(dimethylamino)hexyloxy)-7-methoxy-2H-chromen-2-one] | < 1
COc1ccc2c(Nc3c(Cl)cncc3Cl)cc(=O)oc2c1O[C@@H]1O[C@H](COC(C)=O)[C@@H](OC(C)=O)[C@H](OC(C)=O)[C@H]1OC(C)=O [Example 60, (2R,3R,4S,5R,6S)-2-(Acetoxymethyl)-6-(4-(3,5-dichloropyridin-4-ylamino)-7-methoxy-2-oxo-2H-chromen-8-yloxy)tetrahydro-2H-pyran-3,4,5-triyl triacetate] | < 1
COc1ccc2c(NCC(=O)NO)cc(=O)oc2c1OC1CCCC1 [Example 10, 2-(8-(Cyclopentyloxy)-7-methoxy-2-oxo-2H-chromen-4-ylamino)-N-hydroxyacetamide] | < 1
COc1ccc2c(Nc3c(Cl)cncc3Cl)cc(=O)oc2c1OCCCCCBr [Example 28, 8-(5-Bromopentyloxy)-4-(3,5-dichloropyridin-4-ylamino)-7-methoxy-2H-chromen-2-one] | < 1
COc1ccc2c(Nc3c(Cl)cncc3Cl)cc(=O)oc2c1OC[C@@H]1OC(=O)[C@H]2OC(C)(C)O[C@@H]12 [Example 50, 4-(3,5-Dichloropyridin-4-ylamino)-8-(((3aS,4S,6aS)-2,2-dimethyl-6-oxotetrahydrofuro[3,4-d][1,3]dioxol-4-yl)methoxy)-7-methoxy-2H-chromen-2-one] | < 1
COc1ccc2c(Nc3c(Cl)cncc3Cl)cc(=O)oc2c1OCCCCO[C@@H]1O[C@H](CO)[C@@H](O)[C@H](O)[C@H]1O [Example 87, 4-(3,5-Dichloropyridin-4-ylamino)-7-methoxy-8-(4-((2R,3R,4S,5S,6R)-3,4,5-trihydroxy-6-(hydroxymethyl)tetrahydro-2H-pyran-2-yloxy)butoxy)-2H-chromen-2-one] | < 1

Compound | IC50 [µM]
COc1ccc2c(Nc3c(Cl)ccc(C)c3Cl)cc(=O)oc2c1OC1CCCC1 [Example 16, 8-(Cyclopentyloxy)-4-(2,6-dichloro-3-methylphenylamino)-7-methoxy-2H-chromen-2-one] | > 1
CCc1c(Nc2c(Cl)cncc2Cl)c2ccc(OC)c(OCC3CC3)c2oc1=O [Example 6, 8-(Cyclopropylmethoxy)-4-(3,5-dichloropyridin-4-ylamino)-3-ethyl-7-methoxy-2H-chromen-2-one] | < 1
CCCCCN(C)CCCCCOc1c(OC)ccc2c(Nc3c(Cl)cncc3Cl)cc(=O)oc12 [Example 91, 4-(3,5-Dichloropyridin-4-ylamino)-7-methoxy-8-(5-(methyl(pentyl)amino)pentyloxy)-2H-chromen-2-one] | < 1
COc1ccc2c(Nc3c(Cl)cncc3Cl)cc(=O)oc2c1OCCCCCC(=O)NCC(=O)O [Example 96, 2-(6-(4-(3,5-Dichloropyridin-4-ylamino)-7-methoxy-2-oxo-2H-chromen-8-yloxy)hexanamido)acetic acid] | < 1
COc1ccc2c(NCC(=O)O)cc(=O)oc2c1OC1CCCC1 [Example 7, 2-(8-(Cyclopentyloxy)-7-methoxy-2-oxo-2H-chromen-4-ylamino)acetic acid] | > 1
COc1ccc2c(Nc3c(Cl)cncc3Cl)cc(=O)oc2c1OCCCCO [Example 73, 4-(3,5-Dichloropyridin-4-ylamino)-8-(4-hydroxybutoxy)-7-methoxy-2H-chromen-2-one] | < 1
COc1ccc2c(Nc3c(Cl)cncc3Cl)cc(=O)oc2c1OCCCBr [Example 30, 8-(3-Bromopropoxy)-4-(3,5-dichloropyridin-4-ylamino)-7-methoxy-2H-chromen-2-one] | < 1
COc1ccc2c(Nc3c(Cl)cncc3Cl)cc(=O)oc2c1OCCCCCNC(=N)N [Example 83, 1-(5-(4-(3,5-Dichloropyridin-4-ylamino)-7-methoxy-2-oxo-2H-chromen-8-yloxy)pentyl)guanidine] | < 1
COc1ccc2c(Nc3c(Cl)cncc3Cl)cc(=O)oc2c1OCCCCBr [Example 25, 8-(4-Bromobutoxy)-4-(3,5-dichloropyridin-4-ylamino)-7-methoxy-2H-chromen-2-one] | < 1
COc1ccc2c(Nc3c(Cl)cncc3C(=O)O)cc(=O)oc2c1OC1CCCC1 [Example 22, 5-Chloro-4-(8-(cyclopentyloxy)-7-methoxy-2-oxo-2H-chromen-4-ylamino)nicotinic acid] | > 1
COc1ccc2c(Nc3c(Cl)cncc3Cl)cc(=O)oc2c1OCCOCCN(C)C [Example 69, 4-(3,5-Dichloropyridin-4-ylamino)-8-(2-(2-(dimethylamino)ethoxy)ethoxy)-7-methoxy-2H-chromen-2-one] | < 1
COc1ccc2c(Nc3c(Cl)cncc3Cl)cc(=O)oc2c1OCc1ccc([N+](=O)[O-])cc1 [Example 35, 4-(3,5-Dichloropyridin-4-ylamino)-7-methoxy-8-(4-nitrobenzyloxy)-2H-chromen-2-one] | < 1
COc1ccc2c(Nc3c(Cl)cncc3Cl)cc(=O)oc2c1OCCCCC(=O)O [Example 43, 5-(4-(3,5-Dichloropyridin-4-ylamino)-7-methoxy-2-oxo-2H-chromen-8-yloxy)pentanoic acid] | < 1
COc1ccc2c(Nc3c(Cl)cncc3Cl)cc(=O)oc2c1OCCCCN1CCOCC1 [Example 71, 4-(3,5-Dichloropyridin-4-ylamino)-7-methoxy-8-(4-morpholinobutoxy)-2H-chromen-2-one] | < 1
COc1ccc2c(Nc3c(Cl)cncc3Cl)cc(=O)oc2c1OCC(=O)NO [Example 88, 2-(4-(3,5-Dichloropyridin-4-ylamino)-7-methoxy-2-oxo-2H-chromen-8-yloxy)-N-hydroxyacetamide] | < 1
COc1ccc2c(Nc3c(Cl)cncc3Cl)cc(=O)oc2c1OCC1CCCC1 [Example 40, 8-(Cyclopentylmethoxy)-4-(3,5-dichloropyridin-4-ylamino)-7-methoxy-2H-chromen-2-one] | < 1
COc1ccc2c(Nc3c(Cl)cncc3Cl)c(CCO)c(=O)oc2c1OC1CCCC1 [Example 82, 8-(Cyclopentyloxy)-4-(3,5-dichloropyridin-4-ylamino)-3-(2-hydroxyethyl)-7-methoxy-2H-chromen-2-one] | > 1
CCOC(=O)CCCOc1c(OC)ccc2c(Nc3c(Cl)cncc3Cl)cc(=O)oc12 [Example 36, Ethyl 4-(4-(3,5-dichloropyridin-4-ylamino)-7-methoxy-2-oxo-2H-chromen-8-yloxy)butanoate] | < 1
COc1ccc2c(Nc3c(Cl)cncc3Cl)cc(=O)oc2c1OCCCCCOC(C)=O [Example 61, 5-(4-(3,5-Dichloropyridin-4-ylamino)-7-methoxy-2-oxo-2H-chromen-8-yloxy)pentyl acetate] | < 1
